This is an account of results in ChEMBL document CHEMBL5291721, “A preclinical secondary pharmacology resource illuminates target-adverse drug reaction associations of marketed drugs” (Nat Commun, 2023).

Assay [1] has as its target T1, Alpha-2B adrenergic receptor (Homo sapiens, UniProt P18089).
T1 sequence (P18089 whole entry): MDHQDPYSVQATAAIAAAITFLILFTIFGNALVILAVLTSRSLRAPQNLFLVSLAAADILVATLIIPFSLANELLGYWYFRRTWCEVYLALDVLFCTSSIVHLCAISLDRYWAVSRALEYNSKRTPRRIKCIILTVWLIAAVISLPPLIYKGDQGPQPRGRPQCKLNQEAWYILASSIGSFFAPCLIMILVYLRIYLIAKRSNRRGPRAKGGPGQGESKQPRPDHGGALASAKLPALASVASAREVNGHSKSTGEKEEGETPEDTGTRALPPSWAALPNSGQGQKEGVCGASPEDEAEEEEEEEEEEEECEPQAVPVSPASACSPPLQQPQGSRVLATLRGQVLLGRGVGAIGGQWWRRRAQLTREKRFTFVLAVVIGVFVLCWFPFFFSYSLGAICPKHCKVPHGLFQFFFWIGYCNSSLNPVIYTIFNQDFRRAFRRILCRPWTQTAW

For assay [2], the target named is Beta-2 adrenergic receptor (Homo sapiens, UniProt P07550).
Sequence of Beta-2 adrenergic receptor (P07550 whole entry): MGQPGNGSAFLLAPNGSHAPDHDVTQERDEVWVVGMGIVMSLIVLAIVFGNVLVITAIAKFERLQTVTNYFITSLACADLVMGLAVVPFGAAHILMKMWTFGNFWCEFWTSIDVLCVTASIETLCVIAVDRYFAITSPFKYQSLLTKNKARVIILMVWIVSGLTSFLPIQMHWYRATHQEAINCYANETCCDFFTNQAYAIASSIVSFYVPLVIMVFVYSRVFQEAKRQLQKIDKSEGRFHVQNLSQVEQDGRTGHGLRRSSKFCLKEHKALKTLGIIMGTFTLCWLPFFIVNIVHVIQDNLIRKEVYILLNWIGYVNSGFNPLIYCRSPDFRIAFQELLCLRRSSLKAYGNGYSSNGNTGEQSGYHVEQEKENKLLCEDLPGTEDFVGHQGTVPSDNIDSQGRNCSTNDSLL
Assay [3] addresses Voltage-dependent L-type calcium channel subunit alpha-1C (Rattus norvegicus, UniProt P22002). The format is functional.
In assay [4] the target is T2, Gastrin/cholecystokinin type B receptor (Homo sapiens, UniProt P32239).
T2 sequence (P32239 whole entry): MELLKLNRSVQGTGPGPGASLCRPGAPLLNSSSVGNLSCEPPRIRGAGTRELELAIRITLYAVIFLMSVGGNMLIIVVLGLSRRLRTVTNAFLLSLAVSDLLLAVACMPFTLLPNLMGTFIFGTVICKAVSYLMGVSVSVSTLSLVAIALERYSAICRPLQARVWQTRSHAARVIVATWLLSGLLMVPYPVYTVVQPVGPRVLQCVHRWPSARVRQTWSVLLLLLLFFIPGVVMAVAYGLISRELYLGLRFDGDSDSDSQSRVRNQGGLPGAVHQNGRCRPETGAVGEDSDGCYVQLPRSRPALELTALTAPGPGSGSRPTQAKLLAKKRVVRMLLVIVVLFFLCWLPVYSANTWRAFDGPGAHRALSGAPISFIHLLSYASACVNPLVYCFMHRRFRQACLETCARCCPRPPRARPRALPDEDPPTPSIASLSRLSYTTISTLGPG

The target in assay [5] is Glutamate receptor ionotropic, NMDA 1 (Rattus norvegicus, UniProt P35439).
In assay [6] the target is T3, 5-hydroxytryptamine receptor 2C (Homo sapiens, UniProt P28335).
T3 sequence (P28335 whole entry): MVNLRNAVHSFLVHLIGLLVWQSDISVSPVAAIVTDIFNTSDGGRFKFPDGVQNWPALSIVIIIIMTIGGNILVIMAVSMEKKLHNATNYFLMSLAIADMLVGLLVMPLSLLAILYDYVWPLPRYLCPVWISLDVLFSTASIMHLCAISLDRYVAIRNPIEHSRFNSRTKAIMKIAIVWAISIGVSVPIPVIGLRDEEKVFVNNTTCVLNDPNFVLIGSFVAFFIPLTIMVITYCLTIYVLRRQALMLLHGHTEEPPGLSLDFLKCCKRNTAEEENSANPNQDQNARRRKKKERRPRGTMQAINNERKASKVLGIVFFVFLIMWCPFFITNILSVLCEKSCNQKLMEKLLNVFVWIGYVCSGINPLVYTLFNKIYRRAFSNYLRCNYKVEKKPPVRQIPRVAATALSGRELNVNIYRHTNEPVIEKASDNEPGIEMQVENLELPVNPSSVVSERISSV

The target of assay [7] is T4, Progesterone receptor (Homo sapiens, UniProt P06401).
T4 sequence (P06401 whole entry): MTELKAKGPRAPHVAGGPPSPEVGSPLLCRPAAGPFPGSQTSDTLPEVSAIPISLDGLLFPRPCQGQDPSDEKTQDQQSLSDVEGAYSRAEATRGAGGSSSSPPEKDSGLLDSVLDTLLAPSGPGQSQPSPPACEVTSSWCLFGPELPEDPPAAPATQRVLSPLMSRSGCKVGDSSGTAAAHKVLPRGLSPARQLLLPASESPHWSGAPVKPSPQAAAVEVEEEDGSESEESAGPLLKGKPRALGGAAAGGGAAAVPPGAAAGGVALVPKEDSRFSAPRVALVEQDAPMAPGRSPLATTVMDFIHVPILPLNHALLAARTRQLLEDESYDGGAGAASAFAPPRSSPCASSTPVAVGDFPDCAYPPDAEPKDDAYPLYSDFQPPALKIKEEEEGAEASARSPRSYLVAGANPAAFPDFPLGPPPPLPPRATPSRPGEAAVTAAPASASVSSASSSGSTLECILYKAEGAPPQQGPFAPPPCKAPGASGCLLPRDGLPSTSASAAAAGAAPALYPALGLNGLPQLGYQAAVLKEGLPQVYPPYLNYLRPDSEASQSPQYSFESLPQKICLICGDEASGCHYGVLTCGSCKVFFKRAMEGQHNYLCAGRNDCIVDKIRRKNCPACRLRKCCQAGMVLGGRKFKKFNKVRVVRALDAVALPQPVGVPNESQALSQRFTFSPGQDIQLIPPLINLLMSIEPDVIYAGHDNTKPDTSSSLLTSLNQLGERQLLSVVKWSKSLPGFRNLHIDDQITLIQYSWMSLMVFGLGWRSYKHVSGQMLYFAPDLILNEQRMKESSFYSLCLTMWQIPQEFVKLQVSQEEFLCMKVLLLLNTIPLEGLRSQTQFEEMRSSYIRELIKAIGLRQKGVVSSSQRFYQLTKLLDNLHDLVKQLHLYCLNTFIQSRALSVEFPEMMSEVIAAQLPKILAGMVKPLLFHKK
The format is functional.

Assay [8] deals with T5, Equilibrative nucleoside transporter 1 (Homo sapiens, UniProt Q99808).
T5 sequence (Q99808 whole entry): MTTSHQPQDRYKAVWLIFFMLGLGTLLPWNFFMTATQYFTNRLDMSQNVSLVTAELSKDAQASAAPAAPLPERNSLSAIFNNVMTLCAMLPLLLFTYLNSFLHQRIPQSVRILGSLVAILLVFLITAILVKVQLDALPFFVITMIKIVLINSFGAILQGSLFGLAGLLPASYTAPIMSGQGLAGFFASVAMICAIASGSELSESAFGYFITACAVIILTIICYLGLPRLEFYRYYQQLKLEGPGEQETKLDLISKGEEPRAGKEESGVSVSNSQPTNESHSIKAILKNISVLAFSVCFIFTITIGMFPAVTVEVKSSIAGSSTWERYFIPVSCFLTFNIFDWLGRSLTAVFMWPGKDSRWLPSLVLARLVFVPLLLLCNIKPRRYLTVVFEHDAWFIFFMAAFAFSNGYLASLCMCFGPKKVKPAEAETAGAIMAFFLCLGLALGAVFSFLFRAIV

Assay [9] has as its target Sodium-dependent dopamine transporter (Homo sapiens, UniProt Q01959).
Also: assay procedure not described here.

Sequence of Sodium-dependent dopamine transporter (Q01959 whole entry): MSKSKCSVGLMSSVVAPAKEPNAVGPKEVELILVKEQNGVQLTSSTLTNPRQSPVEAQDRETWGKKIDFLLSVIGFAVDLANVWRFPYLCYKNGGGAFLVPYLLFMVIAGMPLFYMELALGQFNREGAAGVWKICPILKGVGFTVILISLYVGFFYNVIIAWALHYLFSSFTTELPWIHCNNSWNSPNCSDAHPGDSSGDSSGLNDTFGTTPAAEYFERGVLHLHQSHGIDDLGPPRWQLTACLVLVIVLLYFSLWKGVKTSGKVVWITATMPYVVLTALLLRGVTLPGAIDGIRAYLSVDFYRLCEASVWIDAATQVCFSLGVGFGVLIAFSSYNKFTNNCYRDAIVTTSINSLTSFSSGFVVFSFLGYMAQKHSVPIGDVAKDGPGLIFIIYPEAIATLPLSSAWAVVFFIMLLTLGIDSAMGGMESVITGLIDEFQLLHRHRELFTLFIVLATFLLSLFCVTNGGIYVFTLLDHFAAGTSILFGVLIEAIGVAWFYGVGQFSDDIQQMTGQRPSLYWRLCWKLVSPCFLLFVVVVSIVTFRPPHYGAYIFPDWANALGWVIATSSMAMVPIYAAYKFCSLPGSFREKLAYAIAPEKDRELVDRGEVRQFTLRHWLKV
Sequence of Voltage-dependent L-type calcium channel subunit alpha-1C (P22002 whole entry): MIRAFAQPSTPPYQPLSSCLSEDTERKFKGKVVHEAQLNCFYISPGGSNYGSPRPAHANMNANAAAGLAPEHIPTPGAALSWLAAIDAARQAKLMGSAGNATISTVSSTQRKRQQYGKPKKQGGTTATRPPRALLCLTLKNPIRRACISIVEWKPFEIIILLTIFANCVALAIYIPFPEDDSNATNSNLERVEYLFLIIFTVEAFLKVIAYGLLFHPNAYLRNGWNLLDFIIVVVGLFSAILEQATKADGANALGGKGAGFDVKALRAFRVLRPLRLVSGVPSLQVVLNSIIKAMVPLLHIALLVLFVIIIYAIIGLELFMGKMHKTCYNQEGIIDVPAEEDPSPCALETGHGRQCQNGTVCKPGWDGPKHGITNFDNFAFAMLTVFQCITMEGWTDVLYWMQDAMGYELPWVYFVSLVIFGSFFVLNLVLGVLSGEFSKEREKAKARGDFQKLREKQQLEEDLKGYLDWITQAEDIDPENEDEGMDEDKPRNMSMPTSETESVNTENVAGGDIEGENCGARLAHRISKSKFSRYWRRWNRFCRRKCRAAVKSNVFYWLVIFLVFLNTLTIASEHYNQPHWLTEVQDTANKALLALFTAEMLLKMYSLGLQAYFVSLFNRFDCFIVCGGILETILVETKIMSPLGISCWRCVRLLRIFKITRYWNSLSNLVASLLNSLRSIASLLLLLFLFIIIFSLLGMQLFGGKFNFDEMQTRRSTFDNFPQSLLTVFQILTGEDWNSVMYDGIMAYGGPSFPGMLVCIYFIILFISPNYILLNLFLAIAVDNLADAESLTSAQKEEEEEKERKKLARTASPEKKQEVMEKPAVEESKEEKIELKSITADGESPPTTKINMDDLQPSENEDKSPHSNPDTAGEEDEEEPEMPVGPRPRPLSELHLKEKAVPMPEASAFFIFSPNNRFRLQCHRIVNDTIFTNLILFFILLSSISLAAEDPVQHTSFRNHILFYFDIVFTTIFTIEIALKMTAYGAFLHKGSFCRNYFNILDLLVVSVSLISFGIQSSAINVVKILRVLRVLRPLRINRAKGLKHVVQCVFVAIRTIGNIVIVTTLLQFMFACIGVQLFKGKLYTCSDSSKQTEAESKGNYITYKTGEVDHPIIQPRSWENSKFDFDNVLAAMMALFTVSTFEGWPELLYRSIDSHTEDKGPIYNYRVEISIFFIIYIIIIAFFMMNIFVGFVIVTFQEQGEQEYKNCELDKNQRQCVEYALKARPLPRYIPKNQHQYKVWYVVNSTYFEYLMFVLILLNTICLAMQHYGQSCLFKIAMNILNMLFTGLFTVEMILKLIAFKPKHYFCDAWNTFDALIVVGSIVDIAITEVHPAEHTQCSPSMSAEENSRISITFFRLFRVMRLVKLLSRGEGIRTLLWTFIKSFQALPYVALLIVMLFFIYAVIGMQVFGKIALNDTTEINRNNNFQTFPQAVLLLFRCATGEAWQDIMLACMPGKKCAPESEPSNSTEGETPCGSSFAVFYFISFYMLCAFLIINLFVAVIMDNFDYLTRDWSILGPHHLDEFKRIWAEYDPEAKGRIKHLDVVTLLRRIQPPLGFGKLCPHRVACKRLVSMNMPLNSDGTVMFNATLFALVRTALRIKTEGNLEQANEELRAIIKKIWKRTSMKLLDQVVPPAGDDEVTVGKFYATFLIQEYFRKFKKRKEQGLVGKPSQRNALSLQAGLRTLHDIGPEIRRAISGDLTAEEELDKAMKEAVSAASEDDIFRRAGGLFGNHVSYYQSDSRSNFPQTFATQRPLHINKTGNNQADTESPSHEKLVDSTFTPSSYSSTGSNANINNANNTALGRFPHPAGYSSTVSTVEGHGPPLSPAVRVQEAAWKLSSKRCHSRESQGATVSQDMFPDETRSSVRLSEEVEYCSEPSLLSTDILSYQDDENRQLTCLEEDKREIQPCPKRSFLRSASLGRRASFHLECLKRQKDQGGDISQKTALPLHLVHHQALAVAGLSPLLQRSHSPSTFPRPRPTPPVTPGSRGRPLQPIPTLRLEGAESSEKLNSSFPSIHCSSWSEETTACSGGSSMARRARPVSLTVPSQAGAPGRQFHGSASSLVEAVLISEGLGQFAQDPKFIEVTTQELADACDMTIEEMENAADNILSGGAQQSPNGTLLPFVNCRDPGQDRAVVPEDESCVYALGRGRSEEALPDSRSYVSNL

For `CCCO[C@H]1[C@@H]([C@@H](COCc2ccc(Cl)cc2)OCc2ccc(Cl)cc2)OC(OCC)[C@@H]1O` (stereo partly drawn) [CLOBENOSIDE], the half-maximal activity concentration (AC50) in assay [1], in assay [2], in assay [3], in assay [4], in assay [5] and in assay [6] was greater than 30 µM in each case. Besides, the AC50 in assay [7] is 22 µM; in [8] it was greater than 30 µM; in assay [9], greater than 30 µM.
For the molecule `CC1=C(/C=C/C(C)=C/C=C/C(C)=C/C(=O)Oc2c(C)c(C)c3c(c2C)CCC(C)(CCCC(C)CCCC(C)CCCC(C)C)O3)C(C)(C)CCC1` (stereo not drawn) [TRETINOIN TOCOFERIL], the half-maximal activity concentration (AC50) in assay [1], in [2], in assay [3], in [4], in assay [5] and in assay [6] was greater than 30 µM in each case. For the same molecule, the figures for the concentration at half-maximal activity (AC50) in [7], in assay [8] and in assay [9] were 19 µM, greater than 30 µM and greater than 30 µM, respectively.
With `CCN(CC)Cc1nccn1-c1ccc([N+](=O)[O-])cc1C(=O)c1ccccc1Cl` [NIZOFENONE], the half-maximal activity concentration (AC50) in assay [1] was greater than 10 µM; in assay [2], greater than 30 µM; in assay [3] it was greater than 30 µM; in assay [4], greater than 30 µM; in assay [5] it was greater than 30 µM; in assay [6], greater than 30 µM. Moreover, the AC50 in [7], in assay [8] and in assay [9] was greater than 30 µM throughout.
Regarding `COc1ccc(C(Cl)=C(c2ccc(OC)cc2)c2ccc(OC)cc2)cc1` [CHLOROTRIANISENE], the AC50 in assay [1] was greater than 30 µM; in [2], greater than 10 µM; in assay [3], greater than 10 µM; in [4] it was greater than 30 µM; in assay [5], greater than 30 µM; in [6], greater than 30 µM. For the same molecule, the concentration at half-maximal activity (AC50) in assay [7], in [8] and in assay [9] was greater than 30 µM throughout.
As to `Nc1nc(Cl)nc2c1ncn2[C@@H]1O[C@H](CO)[C@@H](O)[C@@H]1F` [CLOFARABINE], the AC50 in [1] is greater than 30 µM; in assay [2], greater than 30 µM; in [3], greater than 30 µM; in [4] it was greater than 30 µM; in [5] it was greater than 10 µM; in [6], greater than 30 µM. Further, the AC50 in assay [7], in assay [8] and in [9] was greater than 30 µM throughout.
As to `O=C(O)c1ccc2nc(-c3cc(Cl)cc(Cl)c3)oc2c1`, the half-maximal activity concentration (AC50) in [1] was greater than 30 µM; in assay [2] it was greater than 30 µM; in assay [3], greater than 30 µM; in assay [4], greater than 10 µM; in assay [5] it was greater than 30 µM; in assay [6] it was greater than 30 µM. For the same molecule, the concentration at half-maximal activity (AC50) in assay [7], in [8] and in assay [9] was greater than 30 µM in each case.
`CO/N=C(\C(=O)N[C@@H]1C(=O)N2C(C(=O)O)=C(CSc3nc(C)c(CC(=O)O)s3)CS[C@H]12)c1csc(N)n1` [CEFODIZIME]: the AC50 in [1], in [2], in assay [3], in assay [4], in [5] and in assay [6] was greater than 30 µM in each case. The AC50 in assay [7], in assay [8] and in assay [9] was greater than 30 µM in each case.
For the molecule `OCC(CO)N[C@H]1C[C@](O)(CO)[C@@H](O)[C@H](O)[C@H]1O` [VOGLIBOSE], the half-maximal activity concentration (AC50) in assay [1], in assay [2], in assay [3], in [4], in [5] and in [6] was greater than 30 µM in each case. Also, the half-maximal activity concentration (AC50) in [7], in assay [8] and in assay [9] was greater than 30 µM in each case.
As for `CN(C)CCOCC(=O)NC12CC3CC(CC(C3)C1)C2` [TROMANTADINE], the AC50 in assay [1], in assay [2], in [3], in [4], in [5] and in assay [6] was greater than 30 µM throughout. Moreover, the AC50 in assay [7], in assay [8] and in assay [9] was greater than 30 µM throughout.
On to `CCC(NC(C)C)C(O)c1ccc(O)c(O)c1` (stereo not drawn) [ISOETHARINE], for which the concentration at half-maximal activity (AC50) in assay [1] is greater than 30 µM; in assay [2] it was 5.43 µM; in [3], greater than 30 µM; in assay [4], greater than 30 µM; in [5] it was greater than 30 µM; in assay [6] it was greater than 30 µM. The AC50 is greater than 30 µM in assay [7], greater than 30 µM in assay [8] and 19.6 µM in assay [9].
In the case of `Cc1ccc(S(=O)(=O)NC(=O)N[C@H]2[C@H]3CC[C@@](C)([C@H]2O)C3(C)C)cc1` [GLIBORNURIDE], the half-maximal activity concentration (AC50) in [1], in [2], in assay [3], in assay [4], in [5] and in [6] was greater than 30 µM each time. In addition, the half-maximal activity concentration (AC50) in assay [7], in [8] and in assay [9] was greater than 30 µM in each case.
Consider `CO/N=C(\C(=O)N[C@@H]1C(=O)N2C(C(=O)[O-])=C(C[n+]3ccc(N)n3CCO)CS[C@H]12)c1csc(N)n1` [CEFOSELIS], for which the AC50 in [1], in [2], in assay [3], in assay [4], in assay [5] and in assay [6] was greater than 30 µM in each case. In addition, the AC50 in [7], in assay [8] and in [9] was greater than 30 µM in each case.
